Patent publication US12338229B2, “Small molecule stimulators of steroid receptor coactivator-3 and methods of their use as cardioprotective and/or vascular regenerative agents” (BAYLOR COLLEGE OF MEDICINE, priority 2018, dated 2025)

Key:
[1] = tested on: mouse hearts after myocardial infarction; assay: Metabolomic profiling of hearts post-MI; format: in vivo, mice
Protocol: Metabolomic profiling. Hearts from 4 control and 4 MCB-613-treated mice were isolated 24 hours post-MI, perfused with 10 mM KCl, snap frozen in liquid nitrogen and stored at −80° C. 10 mgs of tissue was analyzed for fatty acids and carnitines normalized to 3 normal liver control samples. Fatty acids were normalized by Internal Standard L-Tryptophan and carnitines normalized by Internal Standard L-Zeatine.

[2] = Pharmacokinetics in CD-1 mice (plasma, HPLC-MS/MS)
Protocol: Each of the three compounds was dissolved in DMSO (20 mg/mL), mixed with 30% hydroxypropyl-β-cyclodextrin at a 1:9 ratio, and administered to the CD-1 mice intraperitoneally (ip) or orally (po) through a gavage. After compound administration, blood samples (3 mice per compound) were collected at nine time points, i.e., at 5 minutes, 0.25 hours, 0.5 hours, 1 hour, 2 hours, 4 hours, 8 hours, 12 hours, and 24 hours, through the tail vein. Plasma was isolated from these blood samples and the compound plasma concentrations were determined by HPLC-MS/MS. Pharmacokinetic parameters were calculated using the program PKSolver, an add-in program for use in analyzing pharmacokinetic and pharmacodynamics data analysis, as described in Zhang et al., Computer Methods and Programs in Biomedicine, 99: 306-314 (2010).

[3] = tested on: non-cardiomyocyte cells of hearts post-MI; assay: Single cell transcriptional profiling of non-cardiomyocytes post-MI; format: in vivo, mice
Protocol: Isolation of cardiac cells for single cell transcription profiling. Mice were placed under the surgical plane of anesthesia before cervical dislocation. The hearts were removed and cells were isolated by Langendorff retrograde perfusion of calcium-free pH 7.4 Tyrodes solution (130 mM NaCl, […], 0.5 mM MgCl, 0.33 mM NaH2PO4, 0.25 mm HEPES, 22 mM glucose) with collagenase, 1 mg/mL for 15 minutes. The hearts were then removed from the apparatus, and finely minced in the same Tyrodes buffer with 15 mg/mL bovine serum albumin (BSA) before trituration with a glass pipette. Cardiomyocytes were then pelleted by differential centrifugation, 300 RPM for 3 minutes. The supernatant containing the noncardiomyocyte population of cells was then filtered through a 70 micron filter and pelleted at 750 G, and resuspended in 1.1 mL 2% fetal bovine serum (FBS) in phosphate buffered saline (PBS). 0.1 mL was removed for the “no stain control” for fluorescence-activated cell sorting (FACS). The other 1 mL was incubated with 4 ug/mL Calcein Blue and 10 microM DyeCycle Ruby and incubated at 37° C. for 10 minutes. The cells were then spun down at 600G, and resuspended in 0.5 mL 2% FBS/PBS containing Sytox Green (30 nM). […] The cells were then pelleted and resuspended in 100 uL 0.4% FBS in PBS, counted, and then flowed through the 10×Genomics Chromium system for single cell transcriptomic profiling.
Isolation of cardiac cells. […] Then, 0.1 mL of the mixture was removed for the “no stain control” for fluorescence-activated cell sorting (FACS). […] The cells were then pelleted and resuspended in 100 μL 0.4% FBS in PBS, counted, and passed through the 10× Genomics Chromium system.
Single-cell RNA-sequencing. […] To identify cell clusters and differentially expressed genes, the Cell Ranger results were analyzed with Seurat suite version 3.0.0 implemented in R (version 3.4.3). Cells with <200 or >5,000 unique genes expressed or >25% of reads mapping to mitochondria were removed as quality control measure. […]

[4] = tested on: GAL4-DBD full length SRC-1, -2 or -3 fusion; assay: GAL4 luciferase reporter assay in cardiac fibroblasts; format: cell-based, mice; settings: 6 μM, SRC-3 vs SRC-1 and SRC-2
Protocol: Reporter assay. Cardiac fibroblasts were plated in six well plates and transfected with a GAL4 responsive luciferase reporter (pG5-luc) and expression vectors for a GAL4 DNA binding domain (GAL4-DBD) full length SRC-1, -2 or -3 fusion construct (pBIND-SRC-1, pBIND-SRC-2 or pBIND-SRC-3) or pBIND control using Lipofectamine 3000 (Invitrogen; Carlsbad, CA). Twenty-four (24) hours post transfection, cells were treated with 6 μM MCB-613 or dimethyl sulfoxide (DMSO) and incubated overnight. Post treatment cells were lysed and total protein was isolated using the Promega luciferase assay system (Promega Life Sciences; Madison, WI). Protein concentration was measured using a Bradford assay (Bio-Rad Laboratories; Hercules, CA). Relative light units were measured and normalized to total protein concentration.

[5] = tested on: SRC-1, SRC-2 or SRC-3 fused with the DNA binding domain of Gal4; assay: Gal4 luciferase reporter (pG5-luc / pBIND-SRC) in HeLa cells; format: cell-based; settings: pG5-luc + pBIND-SRC-1, -2 or -3
Description: The compounds described herein stimulate SRC intrinsic transcriptional activity. HeLa cells transfected with a Gal4 responsive luciferase reporter (pG5-luc) and a construct encoding SRC-1, SRC-2 or SRC-3 fused with the DNA binding domain of Gal4 (pBIND-SRC-1, pBIND-SRC-2 or pBIND-SRC-3) were exposed to treatments with compounds as described herein, including MCB-613, Compound 10-1, and Compound 10-2.

AUC(0-inf) ([2]; intraperitoneal): 129.6 ng·h/mL
AUC(0-t) ([2]; intraperitoneal): 122.2 ng·h/mL
Cl ([2]; intraperitoneal): 6.4 (mg)/(ng/mL)/h
Cmax ([2]; intraperitoneal): 49.2 ng/mL
Terminal phase t1/2 ([2]; intraperitoneal): 390 min
Tmax ([2]; intraperitoneal): 4.8 min
t1/2 ([2]; intraperitoneal): 51.6 min
AUC(0-inf) ([2]; oral (gavage)): 24.3 ng·h/mL
AUC(0-t) ([2]; oral (gavage)): 15.7 ng·h/mL
Cl ([2]; oral (gavage)): 34 (mg)/(ng/mL)/h
Cmax ([2]; oral (gavage)): 5.6 ng/mL
Terminal phase t1/2 ([2]; oral (gavage)): 966 min
Tmax ([2]; oral (gavage)): 15 min
t1/2 ([2]; oral (gavage)): 56.4 min
SMILES: CCC1C/C(=C\c2cccnc2)C(=O)/C(=C/c2cccnc2)C1 (stereo not shown) [MCB-613]
cardioprotective carnitine metabolites ([1]; mouse hearts 24 hours post-MI): increases cardioprotective carnitine metabolites
β-oxidation of long-chain fatty acids ([1]; mouse hearts 24 hours post-MI): increases β-oxidation of long-chain fatty acids
methylglutaryl carnitine ([1]; mouse hearts post-MI): decreases methylglutaryl carnitine
endothelial cell growth ([3]; 10 weeks post-MI): stimulates endothelial cell growth of two distinct endothelial cell populations
changes in non-cardiomyocyte cell number ([3]; 12 weeks post-MI): macrophage cluster 1 and B lymphocytes decreased in number while epicardial cells, NK/T lymphocytes, fibroblasts, and endothelial cells, including lymphatic cells, were increased in cell number
granulocyte functions (gene set enrichment) ([3]; 12 weeks post-MI): suppresses inflammatory granulocyte functions
SRC activation (luciferase, RLU) [4]: induced in response to MCB-613 to a greater extent than for SRC-1 and SRC-2
intrinsic transcriptional activity of SRCs (luciferase) [5]: selectively stimulates the intrinsic transcriptional activity of SRCs
